The structures appear in SMILES notation.

The test system of series [1] is A. baumannii CAN-ICU 63169. The series can be described thus: MIC, microbroth dilution. It is filed as cell-based. Particulars: standalone. Here is the method: (§1) Antimicrobial Susceptibility Assay. The in vitro antimicrobial activity of all compounds/antibiotics against a panel of bacteria was evaluated by microbroth dilution method in accordance with the Clinical and Laboratory Standards Institute (CLSI) guidelines. Overnight grown bacterial cultures were diluted in saline to achieve a 0.5 McFarland turbidity, followed by 1:50 dilution in Mueller-Hinton broth (MHB) for inoculation to a final concentration of approximately 5×10^5CFU/mL. The antimicrobial agents were 2-fold serially diluted in MHB in a 96-well plate and incubated at 37° C. with equal volumes of inoculum for 18 h. The lowest concentration that prevented the visible growth of bacteria was defined as the MIC for each antimicrobial agent. The broth with or without bacterial cells was used as positive or negative control, respectively.

Series [2] deals with E. coli ATCC 25922. The series can be described thus: MIC, microbroth dilution. It counts as cell-based. Particulars: standalone. The method, then: as §1
Series [3] has as its system E. coli CAN-ICU 61714 (GEN-R). The experiment in a line: MIC, microbroth dilution. It is filed as cell-based. Particulars: standalone. The method, then: as §1
A general note: In broth dilution the organism is exposed to a series of concentrations in liquid medium.

The test system of series [4] is E. coli CAN-ICU 63074 (AMK 32). The experiment in a line: MIC, microbroth dilution. It counts as cell-based. Particulars: standalone. Here is the method:
as §1

Series [5] has as its system E. coli CANWARD-2011 97615 (GEN-R, TOB-R, CIP-R) aac(3′)iia. The series can be described thus: MIC, microbroth dilution. It is filed as cell-based. Particulars: standalone; E. coli CANWARD-2011 97615 (GEN-R, TOB-R, CIP-R). The method, then: as §1
The test system of series [6] is E. faecalis ATCC 29212. The series can be described thus: MIC, microbroth dilution. It counts as cell-based. Particulars: standalone. The method, then:
as §1

Series [7] deals with E. faecium ATCC 27270. The experiment in a line: MIC, microbroth dilution. Particulars: standalone. It is filed as cell-based. Here is the method:
as §1

Series [8] deals with MRSA ATCC 33592. The experiment in a line: MIC, microbroth dilution. It is filed as cell-based. Particulars: standalone. The method, then:
as §1

Series [9] relates to MRSE CAN-ICU 61589 (CAZ >32). The series can be described thus: MIC, microbroth dilution. Particulars: standalone. It is filed as cell-based. The method, then: as §1
The subject of series [10] is MSSE CANWARD-2008 81388. The series can be described thus: MIC, microbroth dilution. It is filed as cell-based. Particulars: standalone. Here is the method:
as §1

Series [11] deals with S. aureus ATCC 29213. The series can be described thus: MIC, microbroth dilution. It is filed as cell-based. Particulars: standalone. The method, then: as §1
For series [12], the system named is S. maltophilia CAN-ICU 62584. The series can be described thus: MIC, microbroth dilution. It is filed as cell-based. Particulars: standalone. The method, then: as §1
Series [13] concerns S. pneumoniae ATCC 49619. The series can be described thus: MIC, microbroth dilution. It counts as cell-based. Particulars: standalone. The method, then:
as §1

The subject of series [14] is P. aeruginosa ATCC 27853. The series can be described thus: MIC, microbroth dilution. Particulars: standalone. It is filed as cell-based, Pseudomonas aeruginosa. The method, then: as §1
The test system of series [15] is P. aeruginosa CAN-ICU 62308 (GEN-R). The series can be described thus: MIC, microbroth dilution. It counts as cell-based, Pseudomonas aeruginosa. Particulars: standalone. Here is the method: as §1
Series [16] deals with P. aeruginosa CANWARD-2011 96846 (GEN-R, TOB-R). The series can be described thus: MIC, microbroth dilution. It counts as cell-based, Pseudomonas aeruginosa. Particulars: standalone. Here is the method:
as §1

Series [17] relates to K. pneumoniae ATCC 13883. The experiment in a line: MIC, microbroth dilution. It counts as cell-based, Klebsiella pneumoniae. Particulars: standalone. The method, then: as §1
Series [18] has as its system human liver carcinoma (HepG2) cells. The experiment in a line: Cytotoxicity, PrestoBlue cell viability assay. It counts as cell-based. Particulars: at about 12 μM (6.5 μg/mL), positive control. The method, then:
Cytotoxicity Assay. Human embryonic kidney cells (HEK293) and HepG2 cells were grown in Dulbecco's modified eagle's medium supplemented with 10% fetal bovine serum in a humidified […] incubator at 37° C. Equal number of cells (100 μl of media containing ˜8000 cells) were dispersed into 96-well plates and wells with medium but no cells were used as blanks. After incubating for 24 h, […] varying concentrations of test compounds (at twice the desired concentrations) were added to each well, including the blanks. The treated cells were then incubated further for 48 h, after which PrestoBlue reagent was added to each well. The plates were then incubated for an additional hour on a nutator mixer in a 5% CO2 incubator. The fluorescence was read at […] on a SpectraMax M2 plate reader (Molecular Devices, USA). Cell viability were interpreted as previously described (55, 77). The values of blank were subtracted from each value, and the viability values of the treated samples relative to the controls with vehicle were calculated. The values for the plots are the means±standard deviation.

In series [19] the test system is human embryo kidney (HEK293) cells. The experiment in a line: Cytotoxicity, PrestoBlue cell viability assay. It counts as cell-based. Particulars: at about 12 μM (6.5 μg/mL), positive control. The method, then: Cytotoxicity Assay. Human embryonic kidney cells (HEK293) and HepG2 cells were grown in Dulbecco's modified eagle's medium supplemented with 10% fetal bovine serum in a humidified 5% atmospheric incubator at 37° C. […] The fluorescence was read at […] on a SpectraMax M2 plate reader (Molecular Devices, USA). […] The values of blank were subtracted from each value, and the viability values of the treated samples relative to the controls with vehicle were calculated. The values for the plots are the means±standard deviation.

Turning to `NCC1OC(OC2C(N)CC(N)C(OC3OC(CO)C(O)C(N)C3O)C2OCCCCN2CCCNCCNCCCNCC2)C(N)CC1O.O=C(O)C(F)(F)F.O=C(O)C(F)(F)F.O=C(O)C(F)(F)F.O=C(O)C(F)(F)F.O=C(O)C(F)(F)F.O=C(O)C(F)(F)F.O=C(O)C(F)(F)F.O=C(O)C(F)(F)F.O=C(O)C(F)(F)F` (stereo not shown) [Compound 1, 5-O-(Butylcyclam)-tobramycin.9TFA], the MIC in series [1] is greater than 128 µg/mL; in [2], 64 µg/mL; in series [3], 128 µg/mL; in series [4], greater than 128 µg/mL; in [5] it was greater than 128 µg/mL; in [6], greater than 128 µg/mL. For the same compound, the MIC is greater than 128 µg/mL in [7]; 64 µg/mL in series [8]; 64 µg/mL in series [9]; 16 µg/mL in series [10]; 64 µg/mL in series [11]; greater than 128 µg/mL in series [12]. Moreover, the minimum inhibitory concentration (MIC) in series [13] was greater than 128 µg/mL; in series [14] it was greater than 128 µg/mL; in series [15] it was greater than 128 µg/mL; in series [16], greater than 128 µg/mL; in series [17], 32 µg/mL.

For the compound `COc1cccc2c1C(=O)c1c(O)c3c(c(O)c1C2=O)C[C@@](O)(C(=O)CO)C[C@@H]3O[C@H]1C[C@H](N)[C@H](O)[C@H](C)O1` [Doxorubicin], in series [18], the cell viability result is recorded as “less than 10%”. The “cytotoxicity of cells reduced to” value in series [19] is given as “less than 10%”.

The MIC is the least concentration at which growth counts as inhibited. A higher MIC goes with weaker potency.

The values above are taken from US20210290648A1, “Potentiation of B-Lactam Antibiotics and B-Lactam/B-Lactamase Inhibitor Combinations Against Multidrug and Extensively Drug-Resistant Pseudomonas Aeruginosa Using Non-Ribosomal Tobramycin-Cyclam Conjugates” (University of Manitoba, priority 2018, published 2021).
